Patent US4906661A, “Esters of aryloxypropanolamine derivatives” (E. I. Du Pont de Nemours and Company, priority 1989, dated 1990)

Tests used:
[1] = molecular target: β2 receptors, guinea pig trachea (Cavia porcellus, UniProt Q8K4Z4); assay: cell-based; settings: Table I; guinea pig trachea, vs isoproterenol; -log KB; read-out: PA2 Trachea (converted)
Experimental: Each tissue was suspended between a fixed glass rod and a Statham Universal Transducer connected to a Beckman recorder. Atria were allowed to beat spontaneously under a loading tension of approximately 0.5 gm. Intrinsic depressant or stimulant activity was determined for each compound by progressively increasing concentrations in the tissue baths at 60-minute intervals. Tissues were not washed between increments. […] Changes in rate in response to isoproterenol, a standard β-receptor agonist, were measured in the absence and presence of test compounds. Spiral strips of guinea pig trachea were suspended under 5 gm resting tension and incubated with phentolamine, tropolone and cocaine. Active tension was generated by addition of carbachol (3.0×10^-7 M) and decreases in tension in response to isoproterenol were quantitated. Cumulative concentration-response curves were produced with isoproterenol both before and after 60-minute incubation of test compounds with atria and trachea. […] The blocking potency of test compounds was estimated by computing pA2 values (-log KB) by the method of Furchgott, the Pharmacological Differentiation of Adrenergic Receptors, Ann. […] A ratio greater than one indicates cardioselectivity. Test drugs were dissolved in distilled water and added to the bath (30 ml) in a volume of 10 or 100 μl.

[2] = Enzymatic hydrolysis by dog blood (procedure C); format: in vitro ADME; settings: 37° C.; for remaining at 1 h: read-out: % Drug remaining, 1 HR, dog blood; for remaining at 2 h: read-out: % Drug remaining, 2 HR, dog blood
Experimental: Chemicals--Acetonitrile was "HPLC" grade. Distilled water was used to dissolve the compounds and 0.01 N HCl was used to dissolve compounds requiring an acidic pH for dissolution.
Enzyme Source--Fresh aqueous humor was collected from eyes of dogs using a 23-gauge needle while fresh dog blood was collected into heparinized Vacutainer tubes. Fresh liver was homogenized in 0.9% NaCl using a Potter-Elvehjem Teflon pestle and glass homogenizer to make a 25% (W/V) homogenate.
Incubation Condition--A 0.5 ml aliquot of dog aqueous humor, blood, or liver homogenate was incubated with 12.5 μg (0.5 ml) of β-blocker in a Dubnoff shaking metabolic incubator at 37° C. for 60 and 120 min. Denatured tissue controls were prepared by adding 2.0 ml of acetonitrile into 0.5 ml of aqueous humor, blood, or liver homogenate to destroy esterase activities prior to addition of the β-blockers. These controls were then incubated at 37° C. for 120 min. After 60 and 120 min, the incubations were terminated by addition of 2 ml of acetonitrile and immediately mixed by a Vortex.cndot. to stop esterase activities.
Sample Processing and Data Analyses--All samples were centrifuged at 4000 RPM for 10 min to sediment denatured proteins. The resultant supernatants were transferred to WISP.cndot. vials and analyzed using an HPLC assay developed for beta blockers. The hydrolysis of β-blockers by aqueous humor, blood, and liver homogenate was determined by disappearance of the compounds. The extent of enzymatic hydrolysis by each tissue was determined by comparing the amount of each compound (absolute peak area) recovered at each time point to the amount of each compound (absolute peak area) in denatured tissue control and aqueous control samples.

[3] = tested on: β-adrenergic receptors, guinea pig trachea vs right atria; assay: Cardioselectivity, KB trachea/KB atria; format: cell-based; settings: 10^(pA2 atria-pA2 trachea); ratio greater than one indicates cardioselectivity
Experimental: Each tissue was suspended between a fixed glass rod and a Statham Universal Transducer connected to a Beckman recorder. Atria were allowed to beat spontaneously under a loading tension of approximately 0.5 gm. Intrinsic depressant or stimulant activity was determined for each compound by progressively increasing concentrations in the tissue baths at 60-minute intervals. Tissues were not washed between increments. The maximum concentration showing little or no cardiodepressant activity was chosen for blockade experiments. Changes in rate in response to isoproterenol, a standard β-receptor agonist, were measured in the absence and presence of test compounds. Spiral strips of guinea pig trachea were suspended under 5 gm resting tension and incubated with phentolamine, tropolone and cocaine. Active tension was generated by addition of carbachol (3.0×10^-7 M) and decreases in tension in response to isoproterenol were quantitated. Cumulative concentration-response curves were produced with isoproterenol both before and after 60-minute incubation of test compounds with atria and trachea. […] The degree of cardioselectivity was estimated from the ratio, KB trachea/KB atria (10^(pA2 atria-pA2 trachea)). A ratio greater than one indicates cardioselectivity. Test drugs were dissolved in distilled water and added to the bath (30 ml) in a volume of 10 or 100 μl.

Chain of β2 receptors, guinea pig trachea (Q8K4Z4 whole entry): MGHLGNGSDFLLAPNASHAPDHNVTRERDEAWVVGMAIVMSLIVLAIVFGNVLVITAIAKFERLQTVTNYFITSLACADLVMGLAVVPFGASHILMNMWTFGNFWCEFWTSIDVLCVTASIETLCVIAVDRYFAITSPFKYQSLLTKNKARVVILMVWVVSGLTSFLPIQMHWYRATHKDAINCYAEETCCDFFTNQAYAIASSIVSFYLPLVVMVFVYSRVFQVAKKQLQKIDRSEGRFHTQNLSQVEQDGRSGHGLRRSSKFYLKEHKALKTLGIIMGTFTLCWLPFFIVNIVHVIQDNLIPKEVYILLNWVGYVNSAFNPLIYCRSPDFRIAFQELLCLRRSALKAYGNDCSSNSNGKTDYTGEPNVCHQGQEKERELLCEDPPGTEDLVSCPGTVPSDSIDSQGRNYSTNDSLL

| Kb [1] [nM] | remaining at 1 h [2] [%] | remaining at 2 h [2] [%] | Structure (SMILES) | Cardioselectivity KB (Trachea)/KB (Atria) [3] |
| --- | --- | --- | --- | --- |
| 31.6 | 41 | 16 | COC(=O)c1ccccc1OCC(O)CNCCNC(=O)C(C)C (stereo not drawn) [II, Methyl 2-[2-Hydroxy-3-[N-[2-(2-methylpropionamido)ethyl]amino]propoxy]benzoate] | 4 |
| 100 | 54 | 47 | COC(=O)c1ccccc1OCC(O)CNCCNC(C)=O (stereo not drawn) [Example I, Methyl 2-[2-Hydroxy-3-[N-2(-acetamidoethyl)amino]propoxy]benzoate] | 2 |
| 20 | 53 | 23 | COC(=O)c1ccccc1OCC(O)CNCCNC(=O)Cc1ccccc1 (stereo not drawn) [III, Methyl 2-[2-Hydroxy-3-[N-[2-(phenylacetamido)ethyl]amino]propoxy]benzoate] | 4 |
